From patent US11053234B2 (GlaxoSmithKline Intellectual Property Development Limited, priority 2016, dated 2021) come the findings set out here.

In the assay the target is T1, haematopoietic prostaglandin D synthase (H-PGDS) (Homo sapiens, UniProt O60760).
T1 construct: Full length human H-PGDS cDNA (Invitrogen Ultimate ORF 10H13026) was amplified by PCR; 6-His (N); TEV protease cleavage site (N); made in house; host or cells: E. coli BL21 (DE3*), vector pET22b+
In words: H-PGDS RapidFire high throughput mass spectrometry assay (conversion of PGH2 to PGD2). Format: biochemical. As to conditions: 10 nM H-PGDS, PGH2 formed in situ by COX-2 from arachidonic acid; read-out: Potency Range (mean pIC50) (converted). In short, it runs like this: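 PGH2 substrate generated in situ by COX-2 (full-length human, FLAG-tagged, Sf9-expressed) from arachidonic acid at ˜10 μM, then converted by full-length human His-tagged H-PGDS (E. coli-expressed). RapidFire SPE–triple quadrupole MS measured PGD2 against PGF2α as substrate surrogate to give percent conversion.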

T1 sequence (O60760 whole entry): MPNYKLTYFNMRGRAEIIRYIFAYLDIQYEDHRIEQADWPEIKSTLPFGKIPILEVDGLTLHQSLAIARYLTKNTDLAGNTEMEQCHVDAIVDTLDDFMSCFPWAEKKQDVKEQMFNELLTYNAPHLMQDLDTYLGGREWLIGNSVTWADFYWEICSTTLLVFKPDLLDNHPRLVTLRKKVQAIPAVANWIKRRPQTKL

On to `COC(=O)c1coc(N2CC(NC(=O)[C@H]3C[C@H](Oc4cccc5scnc45)C3)C2)n1` [Example 45, Methyl 2-(3-((trans)-3-(benzo[d]thiazol-4-yloxy)cyclobutanecarboxamido)azetidin-1-yl)oxazole-4-carboxylate], for which the IC50 is 100 to 1000 nM.
`O=C(NC1CCN(c2ncc(F)cn2)CC1)N1CC(Oc2cc(F)cc3scnc23)C1` [Example 118, 3-((6-Fluorobenzo[d]thiazol-4-yl)oxy)-N-(1-(5-fluoropyrimidin-2-yl)piperidin-4-yl)azetidine-1-carboxamide]: the IC50 is 10 to 79.4 nM.
To `CC(C)(O)[C@@H]1CC[C@@H](NC(=O)N2CC(Oc3cccc4scnc34)C2)CO1` (racemic) [Example 104, Racemic 3-(Benzo[d]thiazol-4-yloxy)-N-((trans)-6-(2-hydroxypropan-2-yl)tetrahydro-2H-pyran-3-yl)azetidine-1-carboxamide] belongs 10 to 79.4 nM; to `O=C(NCc1ccsc1)[C@H]1C[C@H](Oc2cccc3scnc23)C1` [Example 252], 100 to 1000 nM; to `COc1ccc(F)cc1O[C@H]1C[C@H](NC(=O)[C@H]2CC[C@H](C(C)(C)O)CC2)C1` [Example 162, (trans)-N-((trans)-3-(5-Fluoro-2-methoxyphenoxy)cyclobutyl)-4-(2-hydroxypropan-2-yl)cyclohexanecarboxamide], 100 to 1000 nM.
The value for `CC(C)(C)c1nnc(NC(=O)[C@H]2C[C@H](Oc3cccc4cccnc34)C2)o1` [Example 179, (trans)-N-(5-(tert-Butyl)-1,3,4-oxadiazol-2-yl)-3-(quinolin-8-yloxy)cyclobutanecarboxamide] was 10 to 79.4 nM; that for `O=C(NC1CN(c2nccc(Cl)n2)C1)[C@H]1C[C@H](Oc2cc(F)ccc2OC(F)F)C1` [Example 7, (trans)-N-(1-(4-Chloropyrimidin-2-yl)azetidin-3-yl)-3-(2-(difluoromethoxy)-5-fluorophenoxy)cyclobutanecarboxamide] was less than 10 nM.
To `O=C(Nc1nc(CO)cs1)[C@H]1C[C@H](Oc2cccc3cccnc23)C1` [Example 215, (trans)-N-(4-(Hydroxymethyl)thiazol-2-yl)-3-(quinolin-8-yloxy)cyclobutanecarboxamide] belongs 10 to 79.4 nM.
With `CC(=O)c1cnc(NC(=O)[C@H]2C[C@H](Oc3cccc4cccnc34)C2)o1` [Example 174, (trans)-N-(5-Acetvloxazol-2-yl)-3-(quinolin-8-yloxy)cyclobutanecarboxamide], the IC50 is 10 to 79.4 nM.
Take `Cc1n[nH]c(NC(=O)N2CC(Oc3cccc4scnc34)C2)c1C#N` [Example 329, 3-(Benzo[d]thiazol-4-yloxy)-N-(4-cyano-3-methyl-1H-pyrazol-5-yl)azetidine-1-carboxamide]: the IC50 is 100 to 1000 nM.
As to `COCCO[C@H]1CC[C@H](NC(=O)[C@H]2C[C@H](Oc3cc(F)cc4scnc34)C2)CC1` [Example 115, (trans)-3-((6-Fluorobenzo[d]thiazol-4-yl)oxy)-N-((trans)-4-(2-methoxyethoxy)cyclohexyl)cyclobutanecarboxamide], the IC50 was 100 to 1000 nM.
As for `Cc1ccc(CNC(=O)[C@H]2C[C@H](Oc3cccc4scnc34)C2)o1` [Example 255, (trans)-3-(Benzo[d]thiazol-4-yloxy)-N-((5-methylfuran-2-yl)methyl)cyclobutanecarboxamide], the IC50 is 100 to 1000 nM.
To `CC(O)[C@H]1CC[C@H](NC(=O)[C@H]2C[C@H](Oc3cc(F)ccc3OC(F)F)C2)CC1` (mixture of isomers) [Example 26] belongs 10 to 79.4 nM; to `O=C(NC1CCCCC1)N[C@H]1C[C@H](NC(=O)[C@H]2C[C@H](Oc3cccc4scnc34)C2)C1` [Example 67, (trans)-3-(Benzo[d]thiazol-4-yloxy)-N-((trans)-3-(3-cyclohexylureido)cyclobutyl)cyclobutanecarboxamide], 100 to 1000 nM; to `O=C(NC1CN(c2ccccn2)C1)N1CC(Oc2cc(F)cc3scnc23)C1` [Example 132, 3-((6-Fluorobenzo[d]thiazol-4-yl)oxy)-N-(1-(pyridin-2-yl)azetidin-3-yl)azetidine-1-carboxamide], 10 to 79.4 nM.
To `N#Cc1cnc(NC(=O)[C@H]2C[C@H](Oc3cccc4ccoc34)C2)s1` [Example 261, (trans)-3-(Benzofuran-7-yloxy)-N-(5-cyanothiazol-2-yl)cyclobutanecarboxamide] belongs 10 to 79.4 nM; to `Cc1nccc(N2CC(NC(=O)N3CC(Oc4cc(F)cc5scnc45)C3)C2)n1` [Example 122, 3-((6-Fluorobenzo[d]thiazol-4-yl)oxy)-N-(1-(2-methylpyrimidin-4-yl)azetidin-3-yl)azetidine-1-carboxamide], 10 to 79.4 nM.
For `Cc1nc(NC(=O)N2CC(Oc3cccc4scnc34)C2)ns1` [Example 336, 3-(Benzo[d]thiazol-4-yloxy)-N-(5-methyl-1,2,4-thiadiazol-3-yl)azetidine-1-carboxamide], the IC50 was 10 to 79.4 nM.
For `O=C(NC1CCN(c2ccccn2)CC1)N1CC(Oc2cccc3scnc23)C1` [Example 88, 3-(Benzo[d]thiazol-4-yloxy)-N-(1-(pyridin-2-yl)piperidin-4-yl)azetidine-1-carboxamide], the IC50 is 10 to 79.4 nM.
The value for `COc1ccc(Cl)cc1O[C@H]1C[C@H](C(=O)N[C@H]2CC[C@H](C(C)(C)O)CC2)C1` [Example 275, (trans)-3-(5-Chloro-2-methoxyphenoxy)-N-((trans)-4-(2-hydroxypropan-2-yl)cyclohexyl)cyclobutanecarboxamide] was 10 to 79.4 nM; that for `COCCO[C@H]1CC[C@H](NC(=O)N2CC(Oc3cc(F)cc4scnc34)C2)CC1` [Example 128, 3-((6-Fluorobenzo[d]thiazol-4-yl)oxy)-N-((trans)-4-(2-methoxyethoxy)cyclohexyl)azetidine-1-carboxamide] was 10 to 79.4 nM.
As for `CC(=O)c1csc(NC(=O)[C@H]2C[C@H](Oc3cccc4cccnc34)C2)n1` [Example 186, trans-N-(4-Acetylthiazol-2-yl)-3-(quinolin-8-yloxy)cyclobutanecarboxamide], the IC50 was 10 to 79.4 nM.
The value for `O=C(Nc1ccnc(C2CC2)n1)N1CC(Oc2cccc3scnc23)C1` [Example 312, 3-(Benzo[d]thiazol-4-yloxy)-N-(2-cyclopropylpyrimidin-4-yl)azetidine-1-carboxamide] was 10 to 79.4 nM; that for `CC(C)(C)OC(=O)N[C@H]1C[C@H](NC(=O)[C@H]2C[C@H](Oc3cccc4scnc34)C2)C1` [Example 66, tert-butyl ((trans)-3-((trans)-3-(benzo[d]thiazol-4-yloxy)cyclobutanecarboxamido)cyclobutyl)carbamate] was 100 to 1000 nM; that for `O=C(Nc1cccc(N2CCOCC2)c1)N1CC(Oc2cccc3scnc23)C1` [Example 309, 3-(Benzo[d]thiazol-4-yloxy)-N-(3-morpholinophenyl)azetidine-1-carboxamide] was 100 to 1000 nM.
To `CC(C)(O)[C@@H]1CC[C@@H](NC(=O)[C@H]2C[C@H](Oc3cccc4cccnc34)C2)CO1` (racemic) [Example 195, Racemic (trans)-N-((trans)-6-(2-Hydroxypropan-2-yl)tetrahydro-2H-pyran-3-yl)-3-(quinolin-8-yloxy)cyclobutanecarboxamide] belongs 100 to 1000 nM; to `O=C(NC1CN(c2ccc(F)cn2)C1)[C@H]1C[C@H](Oc2cc(F)cc3scnc23)C1` [Example 120, (trans)-3-((6-Fluorobenzo[d]thiazol-4-yl)oxy)-N-(1-(5-fluoropyridin-2-yl)azetidin-3-yl)cyclobutanecarboxamide], 10 to 79.4 nM.
For `Cn1nc(C2CC2)cc1NC(=O)N1CC(Oc2cccc3scnc23)C1` [Example 314, 3-(Benzo[d]thiazol-4-yloxy)-N-(3-cyclopropyl-1-methyl-1H-pyrazol-5-yl)azetidine-1-carboxamide], the IC50 was 10 to 79.4 nM.
As for `CC(C)(O)[C@@H]1CC[C@@H](NC(=O)N2CC(Oc3cc(F)cc4scnc34)C2)CO1` (racemic) [Example 127, Racemic 3-((6-Fluorobenzo[d]thiazol-4-yl)oxy)-N-((trans)-6-(2-hydroxypropan-2-yl)tetrahydro-2H-pyran-3-yl)azetidine-1-carboxamide], the IC50 was 10 to 79.4 nM.
For `COc1ccc(F)cc1O[C@H]1C[C@H](C(=O)NC2CCN(c3ccccn3)CC2)C1` [Example 157, (trans)-3-(5-Fluoro-2-methoxyphenoxy)-N-(1-(pyridin-2-yl)piperidin-4-yl)cyclobutanecarboxamide], the IC50 is 10 to 79.4 nM.
Consider `CC(C)(O)[C@H]1CC[C@H](NC(=O)N2CC(Oc3cccc4scnc34)C2)CC1` [Example 108, 3-(Benzo[d]thiazol-4-yloxy)-N-((trans)-4-(2-hydroxypropan-2-yl)cyclohexyl)azetidine-1-carboxamide], for which the IC50 is 10 to 79.4 nM.
To `O=C(N[C@H]1CC[C@H](C(O)C2CC2)CC1)[C@H]1C[C@H](Oc2cc(F)ccc2OC(F)F)C1` (mixture of isomers) [Example 27, Racemic (trans)-N-((trans)-4-(Cyclopropyl(hydroxy)methyl)cyclohexyl)-3-(2-(difluoromethoxy)-5-fluorophenoxy)cyclobutanecarboxamide] belongs 10 to 79.4 nM; to `CCC(=O)C1CC2(CC(NC(=O)[C@H]3C[C@H](Oc4cc(F)cc5scnc45)C3)C2)C1` (stereo partly drawn) [Example 233, (trans)-3-((6-Fluorobenzo[d]thiazol-4-yl)oxy)-N-(6-propionylspiro[3.31]heptan-2-yl)cyclobutanecarboxamide], 10 to 79.4 nM.
With `CC(C)(O)[C@H]1CC[C@H](NC(=S)N2CC(Oc3cccc4scnc34)C2)CC1` [Example 95, 3-(Benzo[d]thiazol-4-yloxy)-N-((trans)-4-(2-hydroxypropan-2-yl)cyclohexyl) azetidine-1-carbothioamide], the IC50 is 10 to 79.4 nM.
